The source of these data is patent publication US7799824B2, “Quaternary salt CCR2 antagonists” (OraPharma, Inc., priority 2004, dated 2010).

Assay [1] concerns Ovalbumin-induced Allergic Rhinitis. Put plainly: Ovalbumin-induced allergic rhinitis in mice, prophylactic effect. The class given is in vivo, BALB/c mice. The note with it: positive control, dose not given. As to the method:
BALB/c mice were sensitized by i.p. injection of OVA emulsified in alum (Day 0, 5, 14, 21). Groups of mice were each challenged by intranasal injection of OVA (Day 22-35, 38). Control group mice received an equal volume of vehicle by intranasal injection. Nasal symptoms (number of sneezes and episodes of nose rubbing by the front paws) were counted during the 5 min period following the last intranasal injection (Day 38). […] The histamine receptor antagonist […]® was used as a positive control.

For a further assay, the target named is T1, CCR2 (Homo sapiens, UniProt P41597).
T1 sequence (P41597 1-360 isoform P41597-2): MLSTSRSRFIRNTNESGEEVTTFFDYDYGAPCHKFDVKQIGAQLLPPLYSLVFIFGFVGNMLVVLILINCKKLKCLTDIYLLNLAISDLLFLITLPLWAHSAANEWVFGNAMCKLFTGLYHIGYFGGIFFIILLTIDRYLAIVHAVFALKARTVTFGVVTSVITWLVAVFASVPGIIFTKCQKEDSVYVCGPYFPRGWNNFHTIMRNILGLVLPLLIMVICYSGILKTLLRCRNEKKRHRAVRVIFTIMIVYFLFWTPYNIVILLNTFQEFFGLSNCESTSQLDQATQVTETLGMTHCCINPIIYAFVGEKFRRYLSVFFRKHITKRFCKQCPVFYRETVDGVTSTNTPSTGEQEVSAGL
Description: MCP-1 Receptor Binding Assay in THP-1 Cells. The note with it: for inhibition at 25 µM: MCP-1 binding to CCR2, test concentration of 25 μM, unless indicated otherwise, read-out: % Inhibition Ligand Binding; for IC50: THP-1 cells, 0.5 nM 125I labeled MCP-1, 2 hours at 30° C., read-out: Mean Ligand Binding IC50 (inhibition of MCP-1 binding to CCR2). Put shortly:
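THP-1 cells; bound radioactivity collected on filter plates and counted by scintillation. Buffer-only blanks subtracted, drug-treated values compared with vehicle; nonspecific binding defined with 1 μM unlabeled MCP-1.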

Assay [2] concerns Ovalbumin-induced Allergic Rhinitis. Description: Ovalbumin-induced allergic rhinitis in mice, therapeutic effect. It is filed as in vivo, BALB/c mice. The note with it: positive controls, dose not given. As to the method:
BALB/c mice were sensitized by i.p. injection of OVA emulsified in alum (Day 0, 5, 14, 21). Groups of mice were each challenged by intranasal injection of OVA (Day 22-35, 38).
Control group mice received an equal volume of vehicle by intranasal injection. Nasal symptoms (number of sneezes and episodes of nose rubbing by the front paws) were counted during the 5 min period following the last intranasal injection (Day 38).
The anti-histamine Pyralimine and the mast cell-stabilizing agent Ketotifen were used as positive controls.

As for `CN1CCCC(n2nc(Cc3ccc(Cl)cc3)c3ccccc3c2=O)CC1` (stereo not drawn) [Astelin, reference compound], in assay [1], the “inhibition of nasal symptoms (rubbing)” value was determined as 89% and the “inhibition of nasal symptoms (sneezing)” value is on record as 51%.

Turning to `Cc1oc(-c2ccc(Cl)cc2)cc1C(=O)NCc1ccc(C[N+](C)(C)C2CCOCC2)cc1` [Cpd 150, [4-({[5-(4-chloro-phenyl)-2-methyl-furan-3-carbonyl]-amino}-methyl)-benzyl]-dimethyl-(tetrahydro-pyran-4-yl)-ammonium iodide], on CCR2, the inhibition at 25 µM amounted to 27%.

For `C[N+](C)(Cc1ccc(NC(=O)c2cc3ccccc3o2)cc1)C1CCOCC1` [Cpd 152, {4-[(benzofuran-2-carbonyl)-amino]-benzyl}-dimethyl-(tetrahydro-pyran-4-yl)-ammonium iodide], the IC50 on CCR2 came to 1600 nM.

As to `C[N+](C)(Cc1ccc(NC(=O)c2cc(-c3ccc(Cl)cc3)oc2C(F)(F)F)cc1)C1CCCCC1` [Cpd 154, (4-{[5-(4-chloro-phenyl)-2-trifluoromethyl-furan-3-carbonyl]-amino}-benzyl)-cyclohexyl-dimethyl-ammonium iodide], the concentration for half-maximal inhibition (IC50) at CCR2 turned out to be 4600 nM.

`C[N+](C)(Cc1ccc(NC(=O)c2cc3cc(Cl)ccc3o2)cc1)C1CCOCC1` [Cpd 155, {4-[(5-chloro-benzofuran-2-carbonyl)-amino]-benzyl}-dimethyl-(tetrahydro-pyran-4-yl)-ammonium iodide]: the IC50 at CCR2 is 490 nM.

Take `C[N+](C)(Cc1ccc(NC(=O)c2cc3cc(Cl)ccc3o2)cc1)C1CCCCC1` [Cpd 156, {4-[(5-chloro-benzofuran-2-carbonyl)-amino]-benzyl}-cyclohexyl-dimethyl-ammonium iodide]: the IC50 on CCR2 turned out to be 180 nM.

As for `C[N+](C)(Cc1ccc(NC(=O)c2cc3ccccc3o2)cc1)C1CCCCC1` [Cpd 157, {4-[(benzofuran-2-carbonyl)-amino]-benzyl}-cyclohexyl-dimethyl-ammonium iodide], the IC50 at CCR2 worked out at 690 nM.

On to `Cn1c(C(=O)Nc2ccc(C[N+](C)(C)C3CCOCC3)cc2)cc2ccccc21` [Cpd 158, dimethyl-{4-[(1-methyl-1H-indole-2-carbonyl)-amino]-benzyl}-(tetrahydro-pyran-4-yl)-ammonium iodide], for which the IC50 on CCR2 is 400 nM.

For the molecule `C[N+](C)(Cc1ccc(NC(=O)c2cc3cc(Cl)ccc3[nH]2)cc1)C1CCOCC1` [Cpd 159, {4-[(5-chloro-1H-indole-2-carbonyl)-amino]-benzyl}-dimethyl-(tetrahydro-pyran-4-yl)-ammonium iodide], at CCR2, the IC50 is 190 nM.

Consider `C[N+](C)(Cc1ccc(NC(=O)c2cc3cc(Br)ccc3[nH]2)cc1)C1CCOCC1` [Cpd 160, {4-[(5-bromo-1H-indole-2-carbonyl)-amino]-benzyl}-dimethyl-(tetrahydro-pyran-4-yl)-ammonium iodide], for which, at CCR2, the IC50 amounted to 290 nM.

As to `Cn1cc(C(=O)Nc2ccc(C[N+](C)(C)C3CCOCC3)cc2)c2ccccc21` [Cpd 161, dimethyl-{4-[(1-methyl-1H-indole-3-carbonyl)-amino]-benzyl}-(tetrahydro-pyran-4-yl)-ammonium iodide], on CCR2, the inhibition at 25 µM amounted to 33%.

For the molecule `C[N+](C)(Cc1ccc(NC(=O)c2cn(Cc3ccccc3)c3ccccc23)cc1)C1CCOCC1` [Cpd 162, {4-[(1-benzyl-1H-indole-3-carbonyl)-amino]-benzyl}-dimethyl-(tetrahydro-pyran-4-yl)-ammonium iodide], the IC50 on CCR2 is 1600 nM.

On to `Cn1c(C(=O)Nc2ccc(C[N+](C)(C)C3CCCCC3)cc2)cc2ccccc21` [Cpd 163, cyclohexyl-dimethyl-{4-[(1-methyl-1H-indole-2-carbonyl)-amino]-benzyl}-ammonium iodide], for which the IC50 at CCR2 turned out to be 620 nM.

For the molecule `C[N+](C)(Cc1ccc(NC(=O)c2cc3cc(Cl)ccc3[nH]2)cc1)C1CCCCC1` [Cpd 164, {4-[(5-chloro-1H-indole-2-carbonyl)-amino]-benzyl}-cyclohexyl-dimethyl-ammonium iodide], the IC50 at CCR2 was 200 nM.

Take `C[N+](C)(Cc1ccc(NC(=O)c2cc3cc(Cl)ccc3[nH]2)cc1)C[C@@H]1CCCO1` [Cpd 165, (2S)-{4-[(5-chloro-1H-indole-2-carbonyl)-amino]-benzyl}-dimethyl-(tetrahydro-furan-2-ylmethyl)-ammonium iodide]: the IC50 on CCR2 came out at 3300 nM.

For `C[N+](C)(Cc1ccc(NC(=O)c2cc3cc(Cl)ccc3[nH]2)cc1)CC1CC2CCC1C2` (stereo not drawn) [Cpd 166, bicyclo[2.2.1]hept-2-ylmethyl-{4-[(5-chloro-1H-indole-2-carbonyl)-amino]-benzyl}-dimethyl-ammonium iodide], the IC50 on CCR2 was 110 nM.

As to `C[N+](C)(Cc1ccc(NC(=O)C2=Cc3cc(Cl)c(Cl)cc3OCC2)cc1)C1CCOCC1` [Cpd 167, {4-[(7,8-dichloro-2,3-dihydro-benzo[b]oxepine-4-carbonyl)-amino]-benzyl}-dimethyl-(tetrahydro-pyran-4-yl)-ammonium iodide], the half-inhibitory concentration (IC50) on CCR2 was 240 nM.

In the case of `C[N+](C)(Cc1ccc(NC(=O)C2=Cc3cc(Cl)c(Cl)cc3OCC2)cc1)C1CCCCC1` [Cpd 168, cyclohexyl-{4-[(7,8-dichloro-2,3-dihydro-benzo[b]oxepine-4-carbonyl)-amino]-benzyl}-dimethyl-ammonium iodide], on CCR2, the IC50 came out at 1000 nM.

With `C[N+](C)(Cc1ccc(NC(=O)C2=Cc3cc(Cl)c(Cl)cc3OCC2)cc1)C1CC2CCC1C2` (stereo not drawn) [Cpd 169, bicyclo[2.2.1]hept-2-yl-{4-[(7,8-dichloro-2,3-dihydro-benzo[b]oxepine-4-carbonyl)-amino]-benzyl}-dimethyl-ammonium iodide], the IC50 on CCR2 was 240 nM.

For the molecule `C[N+](C)(Cc1ccc(CNC(=O)C2=Cc3cc(Cl)c(Cl)cc3OCC2)cc1)C1CCOCC1` [Cpd 170, (4-{[(7,8-dichloro-2,3-dihydro-benzo[b]oxepine-4-carbonyl)-amino]-methyl}-benzyl)-dimethyl-(tetrahydro-pyran-4-yl)-ammonium iodide], the inhibition at 25 µM on CCR2 was found to be 36%.

Turning to `C[N+](C)(Cc1ccc(NC(=O)C2=Cc3cc(Cl)c(Cl)cc3OCC2)cc1)C1CCSC1` (stereo not drawn) [Cpd 171, {4-[(7,8-dichloro-2,3-dihydro-benzo[b]oxepine-4-carbonyl)-amino]-benzyl}-dimethyl-(tetrahydro-thiophen-3-yl)-ammonium iodide], the IC50 at CCR2 was found to be 560 nM.

On to `C[N+](C)(Cc1ccc(NC(=O)c2cncc(Br)c2)cc1)C1CCOCC1` [Cpd 172, {4-[(5-bromo-pyridine-3-carbonyl)-amino]-benzyl}-dimethyl-(tetrahydro-pyran-4-yl)-ammonium iodide], for which the inhibition at 25 µM on CCR2 was determined as 17%.

Turning to `C[N+](C)(Cc1ccc(NC(=O)c2ccnc(Cl)c2)cc1)C1CCOCC1` [Cpd 173, {4-[(2-chloro-pyridine-4-carbonyl)-amino]-benzyl}-dimethyl-(tetrahydro-pyran-4-yl)-ammonium iodide], on CCR2, the 50% inhibitory concentration (IC50) turned out to be 8100 nM.

Turning to `C[N+](C)(Cc1ccc(NC(=O)c2sc3ccccc3c2Cl)cc1)C1CCOCC1` [Cpd 174, {4-[(3-chloro-benzo[b]thiophene-2-carbonyl)-amino]-benzyl}-dimethyl-(tetrahydro-pyran-4-yl)-ammonium iodide], the inhibition at 25 µM at CCR2 worked out at 52%.

`C[N+](C)(Cc1ccc(NC(=O)c2cc(Cl)sc2Cl)cc1)C1CCOCC1` [Cpd 175, {4-[(2,5-dichloro-thiophene-3-carbonyl)-amino]-benzyl}-dimethyl-(tetrahydro-pyran-4-yl)-ammonium iodide]: at CCR2, the IC50 came to 1500 nM.

For `C[N+](C)(Cc1ccc(NC(=O)c2cc3ccccc3s2)cc1)C1CCOCC1` [Cpd 176, {4-[(benzo[b]thiophene-2-carbonyl)-amino]-benzyl}-dimethyl-(tetrahydro-pyran-4-yl)-ammonium iodide], the IC50 at CCR2 came out at 260 nM.

As to `C[N+](C)(Cc1ccc(NC(=O)c2cc3ccccc3s2)cc1)C1CCCCC1` [Cpd 177, {4-[(benzo[b]thiophene-2-carbonyl)-amino]-benzyl}-cyclohexyl-dimethyl-ammonium iodide], the IC50 on CCR2 came out at 170 nM.

Turning to `C[N+](C)(Cc1ccc(NC(=O)c2sc3ccccc3c2Cl)cc1)C1CCCCC1` [Cpd 178, {4-[(3-chloro-benzo[b]thiophene-2-carbonyl)-amino]-benzyl}-cyclohexyl-dimethyl-ammonium iodide], the 50% inhibitory concentration (IC50) on CCR2 came to 8800 nM.

For the molecule `CN1CCC(=C2c3ccccc3CC(=O)c3sccc32)CC1` [Ketotifen], in assay [2], the “inhibition of nasal symptoms (rubbing)” value is 81% and the “inhibition of nasal symptoms (sneezing)” value was found to be 50%.

Consider `COc1ccc(CN(CCN(C)C)c2ccccn2)cc1` [Pyralimine], for which, in assay [2], the “inhibition of nasal symptoms (rubbing)” value came to 85% and the “inhibition of nasal symptoms (sneezing)” value was 60%.

One may read the inhibition as the relative decrease from the control value, in per cent. As a reminder, the IC50 is the point on the concentration scale where inhibition reaches its midpoint.
